Data taken from the kinase profiling compilation of Christmann-Franck et al. (2016).

How the values were obtained:
Assay in all cases: KINOMEscan competition binding
Settings in all cases: compound 1.0 µM
TSSK1B (human) = TSSK1B (human) (UniProt Q9BXA7)
GAK (human) = GAK (human) (UniProt O14976)
PRKCD (human) = PRKCD (human) (UniProt Q05655)
ERBB3 (human) = ERBB3 (human) (UniProt P21860)
[1] = tested on: PIK3CA (human), P42336 [E545K]
EIF2AK1 (human) = EIF2AK1 (human) (UniProt Q9BQI3)
ERN1 (human) = ERN1 (human) (UniProt O75460)
ERN1 (human), sequence (O75460 whole entry, looked up): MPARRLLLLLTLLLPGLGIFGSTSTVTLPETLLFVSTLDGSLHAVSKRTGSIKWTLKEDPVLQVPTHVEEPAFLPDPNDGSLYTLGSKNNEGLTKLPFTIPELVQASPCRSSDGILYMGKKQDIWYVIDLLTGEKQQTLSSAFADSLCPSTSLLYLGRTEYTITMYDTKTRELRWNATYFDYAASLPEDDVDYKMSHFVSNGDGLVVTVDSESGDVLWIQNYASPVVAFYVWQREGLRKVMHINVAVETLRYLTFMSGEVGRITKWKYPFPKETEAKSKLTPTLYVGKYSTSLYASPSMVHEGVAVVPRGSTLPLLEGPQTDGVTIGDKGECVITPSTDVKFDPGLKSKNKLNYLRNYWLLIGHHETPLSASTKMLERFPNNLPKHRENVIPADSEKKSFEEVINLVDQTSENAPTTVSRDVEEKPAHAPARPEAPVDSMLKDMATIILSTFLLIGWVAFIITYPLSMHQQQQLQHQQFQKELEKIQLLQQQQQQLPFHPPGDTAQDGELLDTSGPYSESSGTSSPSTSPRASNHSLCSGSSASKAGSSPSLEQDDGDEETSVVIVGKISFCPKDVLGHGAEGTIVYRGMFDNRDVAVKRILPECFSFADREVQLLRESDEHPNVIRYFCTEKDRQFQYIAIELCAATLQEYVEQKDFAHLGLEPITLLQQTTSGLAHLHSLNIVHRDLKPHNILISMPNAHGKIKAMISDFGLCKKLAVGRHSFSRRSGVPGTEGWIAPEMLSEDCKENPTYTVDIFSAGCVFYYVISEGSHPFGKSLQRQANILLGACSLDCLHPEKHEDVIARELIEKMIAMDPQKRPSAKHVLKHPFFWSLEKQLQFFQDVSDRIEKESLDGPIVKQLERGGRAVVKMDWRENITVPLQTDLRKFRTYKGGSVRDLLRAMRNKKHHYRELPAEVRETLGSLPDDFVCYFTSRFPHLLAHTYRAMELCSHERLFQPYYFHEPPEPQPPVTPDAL

CSK (human) = CSK (human) (UniProt P41240)
ROCK2 (human) = ROCK2 (human) (UniProt O75116)
EPHB3 (human) = EPHB3 (human) (UniProt P54753)
MAP3K7 (human) = MAP3K7 (human) (UniProt O43318)
PDPK1 (human) = PDPK1 (human) (UniProt O15530)
PHKG2 (human) = PHKG2 (human) (UniProt P15735)
DCLK2 (human) = DCLK2 (human) (UniProt Q8N568)
[2] = tested on: FGFR3 (human), P22607 [G697C]
CDC2L2 (human) = CDC2L2 (human) (UniProt Q9UQ88)
DYRK2 (human) = DYRK2 (human) (UniProt Q92630)
DDR1 (human) = DDR1 (human) (UniProt Q08345)
TAOK3 (human) = TAOK3 (human) (UniProt Q9H2K8)
NEK3 (human) = NEK3 (human) (UniProt P51956)
CDK14 (human) = CDK14 (human) (UniProt O94921)
CDK14 (human), sequence (O94921 whole entry, looked up): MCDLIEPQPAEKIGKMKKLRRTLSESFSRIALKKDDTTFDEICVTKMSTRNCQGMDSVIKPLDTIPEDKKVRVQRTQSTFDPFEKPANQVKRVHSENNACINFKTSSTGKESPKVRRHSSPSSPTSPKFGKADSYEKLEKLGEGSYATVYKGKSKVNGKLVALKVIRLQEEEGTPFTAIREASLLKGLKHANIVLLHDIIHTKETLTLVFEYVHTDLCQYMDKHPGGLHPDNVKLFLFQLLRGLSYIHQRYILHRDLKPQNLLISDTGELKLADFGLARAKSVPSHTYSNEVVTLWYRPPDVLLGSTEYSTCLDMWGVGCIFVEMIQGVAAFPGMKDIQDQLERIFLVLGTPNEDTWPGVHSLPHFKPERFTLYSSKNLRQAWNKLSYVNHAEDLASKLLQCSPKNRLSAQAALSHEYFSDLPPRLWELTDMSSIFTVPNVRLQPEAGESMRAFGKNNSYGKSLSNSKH

[3] = tested on: PIK3CA (human), P42336 [E542K]
PIK3CA (human), P42336 [E542K], sequence (P42336 whole entry E542K, looked up): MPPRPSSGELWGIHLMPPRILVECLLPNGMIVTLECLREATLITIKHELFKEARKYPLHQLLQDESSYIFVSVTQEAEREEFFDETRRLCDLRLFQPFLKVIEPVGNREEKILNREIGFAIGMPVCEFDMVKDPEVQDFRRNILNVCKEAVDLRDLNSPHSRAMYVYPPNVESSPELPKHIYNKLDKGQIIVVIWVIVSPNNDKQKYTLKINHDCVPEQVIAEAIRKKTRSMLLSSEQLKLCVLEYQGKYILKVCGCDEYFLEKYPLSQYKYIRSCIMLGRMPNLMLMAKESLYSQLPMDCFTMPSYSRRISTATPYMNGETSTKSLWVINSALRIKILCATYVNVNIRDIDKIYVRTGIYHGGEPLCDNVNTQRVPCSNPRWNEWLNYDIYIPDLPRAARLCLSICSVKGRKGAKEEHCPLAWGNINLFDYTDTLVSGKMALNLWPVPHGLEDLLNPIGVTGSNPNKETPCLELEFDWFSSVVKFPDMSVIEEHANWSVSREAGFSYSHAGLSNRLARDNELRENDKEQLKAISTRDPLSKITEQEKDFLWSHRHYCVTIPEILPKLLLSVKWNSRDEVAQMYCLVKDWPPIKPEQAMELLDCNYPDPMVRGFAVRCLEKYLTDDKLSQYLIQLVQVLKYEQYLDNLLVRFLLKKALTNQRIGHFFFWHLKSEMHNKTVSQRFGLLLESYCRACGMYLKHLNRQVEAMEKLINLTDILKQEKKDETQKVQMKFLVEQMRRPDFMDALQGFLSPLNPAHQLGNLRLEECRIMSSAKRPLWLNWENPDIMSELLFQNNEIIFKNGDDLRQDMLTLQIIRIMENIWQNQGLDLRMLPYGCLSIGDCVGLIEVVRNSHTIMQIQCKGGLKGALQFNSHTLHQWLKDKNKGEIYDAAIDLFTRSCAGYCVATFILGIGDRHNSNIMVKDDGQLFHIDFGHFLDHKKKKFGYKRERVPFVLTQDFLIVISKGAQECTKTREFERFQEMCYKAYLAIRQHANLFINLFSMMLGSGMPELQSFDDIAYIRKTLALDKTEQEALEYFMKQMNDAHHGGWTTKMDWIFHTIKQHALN

MAP2K7 (human) = MAP2K7 (human) (UniProt O14733)
MAP2K7 (human), sequence (O14733 whole entry, looked up): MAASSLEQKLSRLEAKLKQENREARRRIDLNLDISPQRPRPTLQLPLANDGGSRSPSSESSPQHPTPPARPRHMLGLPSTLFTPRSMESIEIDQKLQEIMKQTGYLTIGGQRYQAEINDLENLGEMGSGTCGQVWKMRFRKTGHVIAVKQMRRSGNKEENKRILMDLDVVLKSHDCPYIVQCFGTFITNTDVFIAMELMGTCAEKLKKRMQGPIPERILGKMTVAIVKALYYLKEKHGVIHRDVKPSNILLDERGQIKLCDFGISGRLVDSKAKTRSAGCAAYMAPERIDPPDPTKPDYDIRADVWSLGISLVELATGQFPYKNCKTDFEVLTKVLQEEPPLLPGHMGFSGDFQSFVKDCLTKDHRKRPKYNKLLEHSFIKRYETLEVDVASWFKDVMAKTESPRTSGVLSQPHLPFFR

EPHB2 (human) = EPHB2 (human) (UniProt P29323)
AKT3 (human) = AKT3 (human) (UniProt Q9Y243)
FES (human) = FES (human) (UniProt P07332)
CDC42BPB (human) = CDC42BPB (human) (UniProt Q9Y5S2)
CDKL1 (human) = CDKL1 (human) (UniProt Q00532)
HIPK4 (human) = HIPK4 (human) (UniProt Q8NE63)
RPS6KA2 KD1 (human) = RPS6KA2 KD1 (human) (UniProt Q15349)
MAPK12 (human) = MAPK12 (human) (UniProt P53778)
[4] = molecular target: TYK2 JH2 pseudokinase (human) (UniProt P29597)
TNK2 (human) = TNK2 (human) (UniProt Q07912)
TNK2 (human), sequence (Q07912 whole entry, looked up): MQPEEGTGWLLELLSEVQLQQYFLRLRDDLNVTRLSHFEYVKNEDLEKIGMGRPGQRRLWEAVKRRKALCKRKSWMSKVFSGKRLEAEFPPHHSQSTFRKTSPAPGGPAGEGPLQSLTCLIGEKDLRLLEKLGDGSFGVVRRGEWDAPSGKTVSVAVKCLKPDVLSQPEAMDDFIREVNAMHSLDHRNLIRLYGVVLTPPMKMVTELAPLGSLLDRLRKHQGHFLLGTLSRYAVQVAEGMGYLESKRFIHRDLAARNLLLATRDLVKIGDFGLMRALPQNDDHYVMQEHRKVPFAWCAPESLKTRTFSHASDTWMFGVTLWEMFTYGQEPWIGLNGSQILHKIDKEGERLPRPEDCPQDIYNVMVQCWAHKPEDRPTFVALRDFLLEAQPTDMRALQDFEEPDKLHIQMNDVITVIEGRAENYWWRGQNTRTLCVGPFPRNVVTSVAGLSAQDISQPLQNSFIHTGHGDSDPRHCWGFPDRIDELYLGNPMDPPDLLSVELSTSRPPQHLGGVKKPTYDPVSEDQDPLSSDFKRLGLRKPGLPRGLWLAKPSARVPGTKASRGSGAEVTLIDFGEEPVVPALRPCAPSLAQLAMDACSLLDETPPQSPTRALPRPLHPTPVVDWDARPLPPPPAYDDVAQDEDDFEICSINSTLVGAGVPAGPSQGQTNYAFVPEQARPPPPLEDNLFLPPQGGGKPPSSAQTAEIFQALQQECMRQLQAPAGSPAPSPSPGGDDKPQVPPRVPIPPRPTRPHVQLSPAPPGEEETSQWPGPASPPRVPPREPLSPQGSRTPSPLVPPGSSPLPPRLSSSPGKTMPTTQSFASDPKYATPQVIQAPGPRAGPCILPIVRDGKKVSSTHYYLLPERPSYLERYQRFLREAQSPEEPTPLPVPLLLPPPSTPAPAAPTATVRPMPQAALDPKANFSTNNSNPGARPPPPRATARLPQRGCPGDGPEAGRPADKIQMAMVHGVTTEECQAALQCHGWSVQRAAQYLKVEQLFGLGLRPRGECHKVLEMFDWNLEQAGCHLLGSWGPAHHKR

SIK2 (human) = SIK2 (human) (UniProt Q9H0K1)
PTK6 (human) = PTK6 (human) (UniProt Q13882)
PTK6 (human), sequence (Q13882 whole entry, looked up): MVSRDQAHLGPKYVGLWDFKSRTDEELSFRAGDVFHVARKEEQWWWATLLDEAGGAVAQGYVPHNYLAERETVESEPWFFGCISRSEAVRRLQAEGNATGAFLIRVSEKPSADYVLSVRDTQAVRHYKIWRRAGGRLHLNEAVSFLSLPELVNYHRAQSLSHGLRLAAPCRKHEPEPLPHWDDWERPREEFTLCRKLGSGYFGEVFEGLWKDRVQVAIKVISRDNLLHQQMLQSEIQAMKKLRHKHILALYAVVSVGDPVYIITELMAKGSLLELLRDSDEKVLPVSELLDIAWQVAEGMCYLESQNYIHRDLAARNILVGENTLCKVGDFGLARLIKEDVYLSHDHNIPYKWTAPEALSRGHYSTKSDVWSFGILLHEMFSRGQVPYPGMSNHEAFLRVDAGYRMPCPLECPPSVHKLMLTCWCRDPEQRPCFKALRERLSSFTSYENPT

PAK4 (human) = PAK4 (human) (UniProt O96013)
MYO3A (human) = MYO3A (human) (UniProt Q8NEV4)
RPS6KA1 KD2 (human) = RPS6KA1 KD2 (human) (UniProt Q15418)
TXK (human) = TXK (human) (UniProt P42681)

TSSK1B (human), sequence (Q9BXA7 whole entry, looked up): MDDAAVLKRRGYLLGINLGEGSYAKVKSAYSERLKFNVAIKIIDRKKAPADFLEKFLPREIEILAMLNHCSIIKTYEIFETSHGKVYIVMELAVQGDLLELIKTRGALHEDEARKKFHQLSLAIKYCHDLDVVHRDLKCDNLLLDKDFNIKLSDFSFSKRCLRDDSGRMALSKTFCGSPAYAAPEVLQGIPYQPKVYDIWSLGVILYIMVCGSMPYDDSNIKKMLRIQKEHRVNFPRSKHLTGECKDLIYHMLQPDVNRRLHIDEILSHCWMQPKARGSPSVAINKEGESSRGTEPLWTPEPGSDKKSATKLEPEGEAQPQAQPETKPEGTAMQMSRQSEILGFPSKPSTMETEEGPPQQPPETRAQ
PIK3CA (human), P42336 [E545K], sequence (P42336 whole entry E545K, looked up): as the sequence (P42336 whole entry E542K, looked up) above, with K542E, E545K counted along it

## CNc1nc(Nc2ccc(C(=O)N3CCOCC3)cc2OC)ncc1Cl
TSSK1B (human)
  kinase still bound, per cent of control: 100%
GAK (human)
  kinase still bound, per cent of control: 25%
PRKCD (human)
  kinase still bound, per cent of control: 49%
ERBB3 (human)
  kinase still bound, per cent of control: 100%
[1]
  kinase still bound, per cent of control: 100%
EIF2AK1 (human)
  kinase still bound, per cent of control: 100%
ERN1 (human)
  kinase still bound, per cent of control: 88%
CSK (human)
  kinase still bound, per cent of control: 100%
ROCK2 (human)
  kinase still bound, per cent of control: 100%
EPHB3 (human)
  kinase still bound, per cent of control: 100%
MAP3K7 (human)
  kinase still bound, per cent of control: 79%
PDPK1 (human)
  kinase still bound, per cent of control: 95%
PHKG2 (human)
  kinase still bound, per cent of control: 58%
DCLK2 (human)
  kinase still bound, per cent of control: 100%
[2]
  kinase still bound, per cent of control: 100%
CDC2L2 (human)
  residual activity: 100%
DYRK2 (human)
  kinase still bound, per cent of control: 91%
DDR1 (human)
  kinase still bound, per cent of control: 100%
TAOK3 (human)
  kinase still bound, per cent of control: 100%
NEK3 (human)
  kinase still bound, per cent of control: 100%
CDK14 (human)
  residual activity: 100%
[3]
  kinase still bound, per cent of control: 100%
MAP2K7 (human)
  kinase still bound, per cent of control: 100%
EPHB2 (human)
  kinase still bound, per cent of control: 100%
AKT3 (human)
  kinase still bound, per cent of control: 81%
FES (human)
  kinase still bound, per cent of control: 100%
CDC42BPB (human)
  kinase still bound, per cent of control: 100%
CDKL1 (human)
  residual activity: 100%
HIPK4 (human)
  kinase still bound, per cent of control: 100%
RPS6KA2 KD1 (human)
  kinase still bound, per cent of control: 100%
MAPK12 (human)
  kinase still bound, per cent of control: 100%
[4]
  kinase still bound, per cent of control: 100%
TNK2 (human)
  kinase still bound, per cent of control: 78%
SIK2 (human)
  kinase still bound, per cent of control: 100%
PTK6 (human)
  kinase still bound, per cent of control: 47%
PAK4 (human)
  kinase still bound, per cent of control: 100%
MYO3A (human)
  kinase still bound, per cent of control: 63%
RPS6KA1 KD2 (human)
  kinase still bound, per cent of control: 88%
TXK (human)
  kinase still bound, per cent of control: 100%
